Data as given in US8741867B2, “Retinoid-liposomes for treating fibrosis” (Nitto Denko Corporation, priority 2011, dated 2014).
Read-outs that look alike come from different tables or passages of the source. d = 2'-deoxy (DNA); r = 2'-OH (RNA)

Key:
[1] = tested on: 293_HSP47-GFP cell line; experiment: Cell viability of 293_HSP47-GFP cells treated with siNA (CellTiter-Glo); conditions: normalized to scrambled siRNA
Description: (§2) Cells treated with or without siNA were measured for viability after 72 hours incubation using CellTiter-Glo Luminescent Cell Viability Assay Kit according to the manual (Promega). The readings were normalized to samples treated with scrambled siNA molecules.
(§3) The 293_HSP47-GFP and 293_GP46-GFP cell lines treated with siRNA against hsp47 and gp46 were evaluated for viability using the methods described in Example 2. The cell viability was normalized to cells treated with scrambled siRNA (Ambion).

[2] = tested on: rat gp46; experiment: Inhibitory efficiency of siHsp47 in 293_GP46-GFP reporter cell line (GFP fluorescence); assay type: cell-based; conditions: 293_GP46-GFP cell line, normalized to scrambled siRNA
Description: (§1) The fluorescent signals were normalized to fluorescent signals from cells treated with scrambled siRNA (Ambion) which served as a control.

[3] = tested on: 293_HSP47-GFP cell line
Description: as §2, §3

[4] = tested on: hsp47 mRNA; experiment: siHsp47 inhibitory effect on hsp47 mRNA by TaqMan qPCR in hTERT cells; assay type: cell-based, human; conditions: 72 hours after transfection, normalized to GAPDH
Description: In Example 14, the knock down efficiency of siHsp47s in reporter cell lines was evaluated by change in fluorescent signal. To validate the results at the mRNA level, siRNAs targeting endogenous hsp47 were transfected into cells of the human HSC cell line hTERT using Lipofectamine RNAiMAX (Invitrogen) in a reverse transfection manner as described in Example 13
The hsp47 mRNA level was evaluated for knock down efficiency of the various tested siHsp47 siNA molecules. Briefly, mRNA were isolated from hTERT cells after 72 hours after transfection using an RNeasy mini kit (Qiagen). The level of hsp47 mRNA was determined by reverse transcription coupled with quantitative PCR using TaqMan® probes. Briefly, cDNA synthesis was carried out using High-Capacity cDNA Reverse Transcription Kit (ABI) according to the manufacturer's instruction, and subjected to TaqMan Gene Expression Assay (ABI, hsp47). The level of hsp47 mRNA was normalized to the level of GAPDH mRNA according to the manufacturer's instruction (ABI).

[5] = tested on: human HSP47; experiment: Inhibitory efficiency of siHsp47 in 293_HSP47-GFP reporter cell line (GFP fluorescence); assay type: cell-based; conditions: 293_HSP47-GFP cell line, normalized to scrambled siRNA
Description: as §1

[6] = tested on: HSP47 protein; experiment: siHsp47 knock down effect at the protein level in hTERT cells (western blot); assay type: cell-based, human; conditions: hTERT cell lysate
Description: The inhibitory effect of different Hsp47 siNA molecules (siHsp47) on hsp47 mRNA expression were validated at the protein level by measuring the HSP47 in hTERT cells transfected with different siHsp47. Transfection of hTERT cells with different siHsp47 were performed as described in Example 13. Transfected hTERT cells were lysed and the cell lysate were clarified by centrifugation. Proteins in the clarified cell lysate were resolved by SDS polyacrylamide gel electrophoresis. The level of HSP47 protein in the cell lysate were determined using an anti-HSP47 antibody (Assay Designs) as the primary antibody, Goat anti-mouse IgG conjugated with HRP (Millipore) as the secondary antibody, and subsequently detected by Supersignal West Pico Chemiluminescence kit (Pierce). Anti-actin antibody (Abcam) was used as a protein loading control.

[7] = tested on: 293_GP46-GFP cell line; assay type: cell-based, human
Description: as §2, §3

[8] = tested on: collagen I mRNA; experiment: Downregulation of collagen I expression by hsp47 siRNA in hTERT cells (TaqMan qPCR); assay type: cell-based, human; conditions: 72 hours, normalized to GAPDH and scrambled siNA
Description: To determine the effect of siHsp47 on collagen I expression level, collagen I mRNA level in hTERT cells treated with different siRNA against hsp47 was measured. Briefly, hTERT cells were transfected with different siHsp47 as described in Example 13. The cells were lysed after 72 hours and mRNA were isolated using RNeasy mini kit according to the manual (Qiagen). The level of collagen 1 mRNA was determined by reverse transcription coupled with quantitative PCR using TaqMan® probes. Briefly, cDNA synthesis was carried out using High-Capacity cDNA Reverse Transcription Kit (ABI) according to the manual, and subjected to TaqMan Gene Expression Assay (ABI, COL 1A1 assay). The level of collagen I mRNA was normalized to the level of GAPDH mRNA according to the manufacturer's instruction (ABI). The signals were normalized to the signal obtained from cells transfected with scrambled siNA.

[9] = tested on: rat fibroblasts (NRK cells); experiment: Inhibition of collagen synthesis by siRNA (3H-proline, collagenase-sensitive fraction); assay type: cell-based; conditions: siRNA 50 nM, 48 hours, compared with control group
Description: In order to examine the amount of collagen synthesized, ^3H-proline was added to the culture supernatant of rat fibroblasts (NRK cells) under the above-mentioned conditions (siRNA concentration 50 nM, time 48 hours), and after transfection the amount of ^3H in secreted protein was examined (FIG. 5). The amount of collagen synthesized was calculated from the ratio of protein secreted in the supernatant to protein degraded by collagenase when culturing gp46siRNA-transfected fibroblasts in the presence of ^3H-proline in accordance with Peterkofsky et al., 1971 Biochemistry 10:988-94. Collagen synthesis ratio=collagenase−sensitive fraction×100(5.4×collagenase−insensitive fraction+collagenase−sensitive fraction)
The collagen synthesis ratio in rat fibroblasts decreased by about 40% compared with a control group (FIG. 6).

[10] = tested on: rat gp46; experiment: Inhibition of gp46 expression by prepared siRNA in NRK cells (western blot); assay type: cell-based
Description: Normal rat kidney cells (NRK cells), which had rat gp46 and were fibroblasts producing collagen, were transfected with 0.1 nM to 50 nM siRNA and cultured for 12 to 48 hours (FIG. 1). The amount of expression of gp46 was checked by the western blot method (FIGS. 2 to 4, upper band corresponding to gp46, lower band corresponding to actin control). All of the siRNAs inhibited the expression of gp46 protein remarkably compared with a vehicle (FIG. 2).

| Substance | cell viability / cytotoxicity [1] | knockdown of rat GP46 (GFP fluorescent signal) [2] | cell viability / cytotoxicity [3] | knock down of hsp47 mRNA (remaining mRNA level) [4] | knockdown of human HSP47 (GFP fluorescent signal) [5] | level of Hsp47 protein [6] | cell viability / cytotoxicity [7] | collagen I mRNA level [8] | other results |
| --- | --- | --- | --- | --- | --- | --- | --- | --- | --- |
| siHsp47-6: siRNA to human hsp47 cDNA 446-464, 19-mer duplex; SEQ ID NO 53/54 (chain 1 GCAGCAAGCAGCACUACAAUU; chain 2 UUGUAGUGCUGCUUGCUGCUU; chemistry not fully specified) | lower |  |  |  |  |  |  |  |  |
| siHsp47-C: siRNA to human and rat hsp47, 19mer duplex, dTdT overhangs; sense GGACAGGCCUCUACAACUAdTdT (SEQ ID NO 5/6) (sense GGACAGGCCUCUACAACUATT; antisense UAGUUGUAGAGGCCUGUCCTT; sugars from the 5' end r19 d2, backbone not given here) |  | efficiently knockdown | without substantial cytotoxicity | most effective | efficiently knockdown | significant decrease | without substantial cytotoxicity |  |  |
| siHsp47-2: siRNA to human hsp47 cDNA 469-487, 19-mer duplex; sense GAGCACUCCAAGAUCAACUdTdT (SEQ ID NO 21/22) (sense GAGCACUCCAAGAUCAACUTT; antisense AGUUGAUCUUGGAGUGCUCTT; sugars from the 5' end r19 d2, backbone not given here) |  | efficiently knockdown | without substantial cytotoxicity | next most effective | efficiently knockdown |  | without substantial cytotoxicity | significantly reduced |  |
| siHsp47-2d: siRNA to human hsp47 cDNA 469-493, 25-mer duplex; sense GAGCACUCCAAGAUCAACUUCCGdCdG (SEQ ID NO 25/26) (sense GAGCACUCCAAGAUCAACUUCCGCG; antisense GCGGAAGUUGAUCUUGGAGUGCUCUU; sense: sugars from the 5' end r23 d2, backbone not given here; antisense: chemistry not given here) |  | efficiently knockdown | without substantial cytotoxicity | next most effective | efficiently knockdown | significant decrease | without substantial cytotoxicity | significantly reduced |  |
| Sequence A: siRNA for rat gp46, GUUCCACCAUAAGAUGGUAGACAAC (SEQ ID NO: 2728) (chemistry not given here) |  |  |  |  |  |  |  |  | decrease of collagen synthesis ratio [9]: about 40%; inhibition of gp46 expression, dependence on concentration ([10]; 0.1 nM to 50 nM siRNA): concentration dependent; inhibition of gp46 protein expression ([10]; 50 nM siRNA, 48 hours): about 90%; expression of gp46 protein (western blot) ([10]; 24 hour culturing, examination of optimal sequence, compared with vehicle): strongest effect |
| Hsp47-7: siRNA to human hsp47 cDNA 692-710, 19-mer duplex; SEQ ID NO 57/58 (chain 1 CCGUGGGUGUCAUGAUGAUUU; chain 2 AUCAUCAUGACACCCACGGUU; chemistry not fully specified) | lower |  |  |  |  |  |  |  |  |
